{"source": "patent US20250154467A1", "about": "“CREATION OF VASCULARIZED BIOLOGICAL STRUCTURES” (The Board of Trustees of the Leland Stanford Junior …, priority 2022, published 2025)", "key": {"hESC-3R micropatterns [1]": {"tested_on": "hESC-3R micropatterns", "experiment": "cVO differentiation screening, 34 conditions, CM/EC/SMC total fluorescence area", "format": "cell-based, human", "text": "Cardiac Vascularized Organoid (cVO) Differentiation. See FIG. 3C, FIG. 10H-I, and Table 1 for an overview of our thirty-four (34) cardiovascular (CV) differentiation screening conditions to produce cVOs. The Control groups utilized only CHIR, FGF2, and IWR. To begin, hPSCs suspended in single cells were transferred to Matrigel-coated non-micropatterned or micropatterned surfaces as described above and differentiated in RPMI-1640 media (61870, Thermo Fisher Scientific) supplemented with B27 without insulin (A1895601, Thermo Fisher Scientific) (RB-I). The CV differentiation was based on the baseline differentiation described previously to promote CM differentiation and contained several additional small molecules and growth factors to promote simultaneous endothelial and smooth muscle cell co-differentiation. On Day 0, for primarily mesoderm induction, basal medium was supplemented with 4 or 5 μM CHIR99021 (CHIR) (S2924, Selleck Chemicals) and 5 ng/ml FGF-2 (FGF2) (100-18B, PeproTech). On Day 3, for CM induction, 5 uM IWR-1 (IWR) (S7086, Selleck Chemicals) was added. On Days 5-16, to simultaneously induce endothelial cell vasculogenesis and angiogenesis along with the cardiomyocyte differentiation, we added combinations of 50 ng/ml VEGF-165 (VEGF) (Days 5, 7, 9, 11, 13) (100-20, PeproTech); 5 ng/ml FGF-2 (FGF2) (Days 7, 9, 11, 13) (100-18B, PeproTech); 10 uM SB431542 (SB) (Days 7, 9, or 11) ([…], Selleck Chemicals); 50 ng/ml Angiopoietin-2 (ANG2) (Days 5 and 7) (130-07, PeproTech); 50 ng/ml Angiopoietin-1 (ANG1) (Days 9 and 11) (130-06, PeproTech); and select components of the VascuLife® VEGF LifeFactors® Kit (Aghajanian et al., 2016) (LS-1020, Lifeline Cell Technology) (Days 5, 7, 9, 11, and 13) (5 ng/ml EGF, 15 ng/ml IGF-1, 50 μg/mL ascorbic acid, 0.75 U/mL heparin sulfate, […]). On Days 7-16, to simultaneously induce smooth muscle cell differentiation with cardiomyocyte and endothelial cell differentiation, we added 2.5 or 10 ng/ml PDGF-BB (PDGFBB) (Days 7, 9, 11, 13) (100-14B, PeproTech) and 0.5 or 2 ng/ml TGF-β1 (TGFβ) (Days 7, 9, 11, 13) (100-21C, PeproTech). To increase throughput, screening time-lapse microscopy was performed with the Cytation 5 Cell Imaging Multi-Mode Reader (BioTek). Five (5) forty-eight (48)-well plates (204 out of 240 wells) were imaged over the differentiation time-period. The plates contained a single 2 mm circular micropattern of undifferentiated hESC-3R cells in the center of each well subjected to thirty-four (34) differentiation conditions, with nominally 4-6 replicates per condition, imaged at six (6) timepoints (Days 3, 5, 8, 10, 12, and 16 (D3-D16)). After all raw images were acquired, image analysis was performed with Gen5 v3.05 software (BioTek). Images in each channel and each 4×4 array were stitched to create a single mosaic image; 4728 mosaics were created, and each mosaic image was downsized by 25%. Next, image processing of each mosaic was performed to reduce background independently in each channel. Finally, for each channel, thresholding was performed on fluorescence intensity along with minimum and maximum object size to calculate the total Phase, CFP, GFP, and mOrange total fluorescence area in each well for each condition at each timepoint. Each mosaic image was computationally masked by a circular “plug” to eliminate fluorescence artifact created by well edges. For each condition, values for replicate samples were summed, and the mean and standard deviation were calculated."}, "hESC-3R colony": {"tested_on": "hESC-3R colony", "experiment": "3D cVO creation in 96-well plate with a range of CHIR", "format": "cell-based, human", "conditions": "3D cVOs, day 14, CHIR 6.0-8.5 uM", "procedure": "For 3D cVO creation, two methods were used. In the first method, stencils with single 2 mm center holes were placed in 24-well plates with Softwell Easy Coat hydrogels with a custom stiffness of 16 […]) and hESC-3R cells were micropatterned as described above. In the second method, to increase throughput and eliminate using stencils, each well of a black 96-well plate ([…]-32EA, Sigma-Aldrich) was freshly coated with a central, 2 uL drop of Matrigel (1:400 dilution) and was then seeded with 125,000 hESC-3R cells. Cells were allowed to attach and grow for 2-4 days forming a single, homogenous, round colony in the center of each well. The same differentiation protocol for 2D cVOs was then used to create 3D cVOs from days 0-14, using a range of CHIR from 6.0-8.5 μM."}, "RUES-GLR hESCs": {"tested_on": "RUES-GLR hESCs", "experiment": "Germ layer formation under different CHIR concentrations", "format": "cell-based, human", "conditions": "CHIR 4 uM added at day 0, day 6"}, "hESC-3R micropatterns [2]": {"tested_on": "hESC-3R micropatterns", "experiment": "CHIR concentrations and VEGF addition on CM and EC co-differentiation over 14 days", "format": "cell-based, human", "conditions": "day 14"}, "cVO EC formation": {"tested_on": "cVO EC formation", "conditions": "for time course of detrimental effect on EC formation (regression coefficients): multiple linear regression fit, 16 days; for effect on vascularization of cVOs: pathway inhibitors, summary; for EC location within cVO: day 16"}, "[3]": {"tested_on": "Controls (baseline cardiomyocyte differentiation)", "experiment": "Beat rate with isoproterenol treatment, Controls", "format": "cell-based, human", "conditions": "isoproterenol 0, 1, and 10 uM; n=15", "text": "Baseline Cardiomyocyte (CM) Differentiation. For baseline cardiomyocyte (CM) differentiation (Control group), hPSCs were transferred to Matrigel-coated non-micropatterned and micropatterned surfaces as described above and differentiated in RPMI-1640 media (61870, Thermo Fisher Scientific) supplemented with B27 without insulin (A1895601, Gibco/Thermo Fisher Scientific). Our baseline differentiation method was based on a small molecule-based monolayer method (Lian et al., 2012; Burridge et al., 2014). Briefly, on the first day (Day 0) of differentiation, basal medium was supplemented with 4, 5, or 6 μM CHIR99021 (CHIR) (S2924, Selleck Chemicals) and 5 ng/mL FGF-2 (FGF2) (100-18B, PeproTech). On Day 2, the medium was replaced with basal medium containing B27 without insulin. […] We assessed the contractility of Control and cVO groups in a similar manner as we have previously described. Contraction of beating CMs within the micropatterns was recorded with high-resolution motion capture tracking (75 fps) using the SI8000 Live Cell Motion Imaging System (Sony Corporation). […] Functional parameters were assessed from the averaged contraction-relaxation waveforms from 10 sec recordings, using the S[…] […] The software was used to detect motion vectors and quantify beating rate, contraction velocity, relaxation velocity, and contraction-relaxation peak interval of cVOs."}, "cVOs": {"tested_on": "cVOs", "experiment": "Beat rate with isoproterenol treatment, cVOs", "format": "cell-based, human", "conditions": "isoproterenol 0, 1, and 10 uM; n=16", "text": "Cardiac Vascularized Organoid (cVO) Differentiation. See FIG. 3C, FIG. 10H-I, and Table 1 for an overview of our thirty-four (34) cardiovascular (CV) differentiation screening conditions to produce cVOs. The Control groups utilized only CHIR, FGF2, and IWR. To begin, hPSCs suspended in single cells were transferred to Matrigel-coated non-micropatterned or micropatterned surfaces as described above and differentiated in RPMI-1640 media (61870, Thermo Fisher Scientific) supplemented with B27 without insulin (A1895601, Thermo Fisher Scientific) (RB-I). The CV differentiation was based on the baseline differentiation described previously to promote CM differentiation and contained several additional small molecules and growth factors to promote simultaneous endothelial and smooth muscle cell co-differentiation. […] We assessed the contractility of Control and cVO groups in a similar manner as we have previously described. Contraction of beating CMs within the micropatterns was recorded with high-resolution motion capture tracking (75 fps) using the SI8000 Live Cell Motion Imaging System (Sony Corporation). […] Functional parameters were assessed from the averaged contraction-relaxation waveforms from 10 sec recordings, using the S[…] […] The software was used to detect motion vectors and quantify beating rate, contraction velocity, relaxation velocity, and contraction-relaxation peak interval of cVOs."}, "[4]": {"conditions": "CHIR 4 vs 5 uM for each condition, day 12"}}, "note": "Entries after “also recorded” stand apart in the source; their conditions may differ. Like-named read-outs stand apart in the source and are kept apart here."}
{"compound": "Cc1cnc(-c2cnc(NCCNc3ccc(C#N)cn3)nc2-c2ccc(Cl)cc2Cl)[nH]1", "note": "[CHIR, 6-[[2-[[4-(2,4-Dichlorophenyl)-5-(5-methyl-1H-imidazol-2-yl)-2-pyrimidinyl]amino]ethyl]amino]-3-pyridinecarbonitrile]", "values": [{"measurement": "CHIR concentration giving the most CMs, ECs, and SMCs", "setting": "hESC-3R micropatterns [1]; 34 screening conditions, CHIR 4 uM vs 5 uM", "result": 5, "unit": "µM"}, {"measurement": "CHIR concentration giving the most CMs (GFP total fluorescence area)", "setting": "hESC-3R micropatterns [1]; [4]", "result": 5, "unit": "µM"}, {"measurement": "CHIR concentration giving the most ECs (mOr total fluorescence area)", "setting": "hESC-3R micropatterns [1]; [4]", "result": 5, "unit": "µM"}, {"measurement": "CHIR concentration giving the most SMCs (CFP total fluorescence area)", "setting": "hESC-3R micropatterns [1]; [4]", "result": 5, "unit": "µM"}, {"measurement": "CHIR concentration giving the most CMs and ECs", "setting": "hESC-3R colony", "result": 7.0, "unit": "µM"}, {"measurement": "germ layer formation in micropatterned RUES-GLR hESCs", "setting": "RUES-GLR hESCs", "result": "central BRA+ mesodermal area was surrounded by a SOX17+ endodermal ring and no SOX2 ectodermal expression; also recorded: BRA+ mesodermal central area surrounded by a SOX17+ endodermal ring, with no SOX2 ectodermal expression"}, {"measurement": "CHIR concentration giving the most CMs", "setting": "hESC-3R micropatterns [2]; CHIR+FGF2+IWR (Control), CHIR 3, 4, and 5 uM", "result": 5, "unit": "µM"}, {"measurement": "CHIR concentration giving the most CMs and ECs", "setting": "hESC-3R micropatterns [2]; CHIR+FGF2+IWR+VEGF 50 ng/ml", "result": 5, "unit": "µM"}]}
{"compound": "C[C@H](NC(=O)Cc1cc(F)cc(F)c1)C(=O)N[C@H](C(=O)OC(C)(C)C)c1ccccc1", "note": "[DAPT]", "values": [{"measurement": "difference in cVO EC formation between concentrations", "setting": "cVO EC formation; DAPT 1 vs 10 uM", "result": "no significant (ns) difference"}, {"measurement": "time course of detrimental effect on EC formation (regression coefficients)", "setting": "cVO EC formation", "result": "decays over time"}, {"measurement": "effect on vascularization of cVOs", "setting": "cVO EC formation", "result": "general disruptive effects on vascularization"}]}
{"compound": "Cl.Cl.c1cc(-c2cnn3cc(-c4ccc(OCCN5CCCCC5)cc4)cnc23)ccn1", "note": "[Dorsomorphin, 6-[4-[2-(1-Piperidinyl)ethoxy]phenyl]-3-(4-pyridinyl)-pyrazolo[1,5-a]pyrimidine dihydrochloride]", "values": [{"measurement": "difference in cVO EC formation between concentrations", "setting": "cVO EC formation; Dorsomorphin 0.1 vs 1.0 uM", "result": "no significant (ns) difference"}, {"measurement": "time course of detrimental effect on EC formation (regression coefficients)", "setting": "cVO EC formation", "result": "exponentially increases"}, {"measurement": "effect on vascularization of cVOs", "setting": "cVO EC formation", "result": "general disruptive effects on vascularization"}]}
{"compound": "CC(C)NCC(O)c1ccc(O)c(O)c1", "note": "(stereo not shown) [isoproterenol]", "values": [{"measurement": "Beat rate of Controls", "setting": "[3]", "result": "significantly increased; also recorded: increases"}, {"measurement": "Beat rate of cVOs", "setting": "cVOs", "result": "significantly increased; also recorded: increases"}]}
{"compound": "Angiostatin", "values": [{"measurement": "EC location within cVO", "setting": "cVO EC formation; Angiostatin 0.1 ug/mL", "result": "ECs congregated in the center area of starting micropatterns"}, {"measurement": "EC location within cVO", "setting": "cVO EC formation; Angiostatin 1.0 ug/mL", "result": "ECs congregated at the periphery of starting micropatterns"}, {"measurement": "difference in cVO EC formation between concentrations", "setting": "cVO EC formation; Angiostatin 0.1 vs 1.0 ug/mL", "result": "no significant (ns) difference"}, {"measurement": "effect on vascularization of cVOs", "setting": "cVO EC formation", "result": "general disruptive effects on vascularization"}]}
{"compound": "VEGF", "values": [{"measurement": "EC formation (mOr) compared to Control, FGF2 alone and SB alone", "setting": "hESC-3R micropatterns [1]; VEGF alone, 50 ng/ml, day 12", "result": "most ECs"}, {"measurement": "effect on CM formation (GFP)", "setting": "hESC-3R micropatterns [1]; VEGF alone, 50 ng/ml, day 12", "result": "no statistical (ns) effect"}]}
